Assay results taken from a flash point compilation (Sun et al. 2020).

Row | Structure (SMILES) | flash point
1 | C=C(C)C(=O)OCCCCCCCC(C)C [8-methylnonyl 2-methylprop-2-enoate] | 121.00 °C
2 | Oc1ccccc1-c1ccccc1 [2-phenylphenol] | 124.00 °C
3 | CC(C)Nc1ccc(Nc2ccccc2)cc1 [1-N-phenyl-4-N-propan-2-ylbenzene-1,4-diamine] | 151.00 °C
4 | CC=CCCCCCC [non-2-ene] | 26.00 °C
5 | CCCCC#N [pentanenitrile] | 41.00 °C
6 | CC/C(=C(/CC)c1ccc(O)cc1)c1ccc(O)cc1 [4-[(E)-4-(4-hydroxyphenyl)hex-3-en-3-yl]phenol] | 104.00 °C
7 | O=S1(=O)CCCC1 [thiolane 1,1-dioxide] | 166.00 °C
8 | CN(C)c1ccc(Cc2ccc(N(C)C)cc2)cc1 [4-[[4-(dimethylamino)phenyl]methyl]-N,N-dimethylaniline] | 211.00 °C
9 | CCC1CCC(CCC(=O)O)C1 (centres undefined) [3-(3-ethylcyclopentyl)propanoic acid] | 101.00 °C
10 | CC(C)(OO)c1ccccc1 [2-hydroperoxypropan-2-ylbenzene] | 57.00 °C
11 | CCCCCCCCC [nonane] | 31.00 °C
12 | CCOP(=S)(Oc1ccc([N+](=O)[O-])cc1)c1ccccc1 (centres undefined) | 30.00 °C
13 | c1ccc(-c2ccccc2-c2ccccc2)cc1 [1,2-diphenylbenzene] | 163.00 °C
14 | CC(=O)CC(C)=O [pentane-2,4-dione] | 34.00 °C
15 | O=C(O)C(Cl)Br (centres undefined) [2-bromo-2-chloroacetic acid] | 110.00 °C
16 | CC(O)CC=O (centres undefined) [3-hydroxybutanal] | 66.00 °C
17 | CCCCCCCC/C=C\CCCCCCCC(=O)O [(Z)-octadec-9-enoic acid] | 189.00 °C
18 | OC(CCl)CCl [1,3-dichloropropan-2-ol] | 74.00 °C
19 | CCCCCC(C)O (centres undefined) [heptan-2-ol] | 71.00 °C
20 | CCCCSP(SCCCC)SCCCC [tris(butylsulfanyl)phosphane] | 146.00 °C

Row | Structure (SMILES) | flash point
21 | C=CC=C(C)C [4-methylpenta-1,3-diene] | -34.00 °C
22 | CCCCCN [pentan-1-amine] | 7.00 °C
23 | O=C([O-])CN(CCO)CCN(CC(=O)[O-])CC(=O)[O-].[Na+].[Na+].[Na+] | 100.00 °C
24 | CC(C)Nc1ccccc1 [N-propan-2-ylaniline] | 88.00 °C
25 | C=CCCCCCCCCC [undec-1-ene] | 71.00 °C
26 | O=C(O)c1ccccc1C(=O)O [phthalic acid] | 168.00 °C
27 | Nc1ccc(Cl)cc1 [4-chloroaniline] | 113.00 °C
28 | CCCCCCOCCOCCO [2-(2-hexoxyethoxy)ethanol] | 141.00 °C
29 | CC(C)CCCCCOC(=O)COc1cc(Cl)c(Cl)cc1Cl [6-methylheptyl 2-(2,4,5-trichlorophenoxy)acetate] | 69.00 °C
30 | CNCCCN [N'-methylpropane-1,3-diamine] | 36.00 °C
31 | CO [methanol] | 11.00 °C
32 | C=C(C)C(=O)OCC1CO1 (centres undefined) [oxiran-2-ylmethyl 2-methylprop-2-enoate] | 83.00 °C
33 | N#CCCNCCC#N [3-(2-cyanoethylamino)propanenitrile] | 110.00 °C
34 | OCC1CO1 (centres undefined) [oxiran-2-ylmethanol] | 72.00 °C
35 | CCOc1ccccc1 [ethoxybenzene] | 63.00 °C
36 | CC=C1CC2C=CC1C2 (centres undefined) [5-ethylidenebicyclo[2.2.1]hept-2-ene] | 26.00 °C
37 | C=CCc1ccc(O)c(OC)c1 [2-methoxy-4-prop-2-enylphenol] | 104.00 °C
38 | CCCCCCCCOC(=O)CCCCCCCC1OC1CCCCCCCC (centres undefined) [octyl 8-(3-octyloxiran-2-yl)octanoate] | 217.00 °C
39 | CC(O)COC(C)COC(C)CO (centres undefined) [2-[2-(2-hydroxypropoxy)propoxy]propan-1-ol] | 141.00 °C
